{"source": "patent US12454529B2", "about": "“Piperazine cyclic ureas” (SIRONAX LTD., priority 2020, dated 2025)", "data": [{"system": "HT-29 cells", "test": "HT-29 cell necrosis/necroptosis inhibition (TNF-α + SMAC mimetic + zVAD-FMK; CellTiter-Glo cell viability)", "assay_type": "cell-based", "conditions": "Homo sapiens, HT-29, 20 h, read-out: EC50 (Cell activity; Necrosis/Necroptosis Inhibitory Activity, Compounds 1-142)", "procedure,_shortened": "(§1)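 Necroptosis was driven by TNF-α 10 ng/ml plus SMAC mimetic 6 μM and zVAD-FMK 10 μM in serum-free medium, with compounds as a 10-point threefold titration. After 20 h at 37 °C, ATP-based luminescence was read; EC50 values are geometric means of duplicate curves.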", "units": {"EC50": "nM"}, "values": [{"smiles": "CCn1nc(C)c(-c2nc(N3CCN(C(=O)N4N=CC[C@H]4c4cc(F)cc(F)c4)CC3)ncc2F)c1C", "note": "[Compound 117, (S)-(5-(3,5-difluorophenyl)-4,5-dihydro-1H-pyrazol-1-yl)(4-(4-(1-ethyl-3,5-dimethyl-1H-pyrazol-4-yl)-5-fluoropyrimidin-2-yl)piperazin-1-yl)methanone]", "EC50": "0.1 to 100"}, {"smiles": "Cc1nn(C[C@@H]2CO2)c(C)c1-c1nc(N2CCN(C(=O)N3N=CC[C@H]3c3cc(F)cc(C#N)c3)CC2)ncc1F", "note": "[Compound 133, 3-((S)-1-(4-(4-(3,5-dimethyl-1-(((R)-oxiran-2-yl)methyl)-1H-pyrazol-4-yl)-5-fluoropyrimidin-2-yl)piperazine-1-carbonyl)-4,5-dihydro-1H-pyrazol-5-yl) fluorobenzonitrile]", "EC50": "0.1 to 100"}]}, {"system": "HT-29 cells", "test": "HT-29 cell necrosis/necroptosis inhibition (TNF-α + SMAC mimetic + zVAD-FMK; CellTiter-Glo cell viability)", "assay_type": "cell-based", "conditions": "Homo sapiens; HT-29 cells, TNF-α 10 ng/ml + SMAC mimetic 6 μM + zVAD-FMK 10 μM, 20 hours; geometric mean, 10 points in duplicate; read-out: EC50 (Cell activity; Necrosis/Necroptosis Inhibitory Activity, Compounds 1-142)", "procedure,_shortened": "as §1", "units": {"EC50": "nM"}, "values": [{"smiles": "Cc1nnn(C)c1-c1nc(N2CCN(C(=O)N3N=CC[C@H]3c3cc(F)cc(F)c3)CC2)ncc1F", "note": "[Compound 71, (S)-(5-(3,5-difluorophenyl)-4,5-dihydro-1H-pyrazol-1-yl)(4-(4-(1,4-dimethyl-1H-1,2,3-triazol-5-yl)-5-fluoropyrimidin-2-yl)piperazin-1-yl)methanone]", "EC50": "0.1 to 100"}, {"smiles": "Cn1ccc(-c2nc(N3CCN(C(=O)N4N=CC[C@H]4c4cc(F)cc(F)c4)CC3)ncc2F)n1", "note": "[Compound 27, (S)-(5-(3,5-difluorophenyl)-4,5-dihydro-1H-pyrazol-1-yl)(4-(5-fluoro-4-(1-methyl-1H-pyrazol-3-yl)pyrimidin-2-yl)piperazin-1-yl)methanone]", "EC50": "0.1 to 100"}, {"smiles": "Cn1ncnc1-c1nc(N2CCN(C(=O)N3N=CC[C@H]3c3cc(F)cc(C#N)c3)CC2)ncc1F", "note": "[Compound 66, (S)-3-fluoro-5-(1-(4-(5-fluoro-4-(1-methyl-1H-1,2,4-triazol-5-yl)pyrimidin-2-yl)piperazine-1-carbonyl)-4,5-dihydro-1H-pyrazol-5-yl)benzonitrile]", "EC50": "0.1 to 100"}, {"smiles": "Cn1ncc(-c2nc(N3CCN(C(=O)N4N=CC[C@H]4c4cc(F)cc(C#N)c4)CC3)ncc2F)n1", "note": "[Compound 42]", "EC50": "0.1 to 100"}, {"smiles": "O=C(N1CCN(c2nccc(-c3cc[nH]n3)n2)CC1)N1N=CC[C@H]1c1cc(F)cc(F)c1", "note": "[Compound 33, (S)-(4-(4-(1H-pyrazol-3-yl)pyrimidin-2-yl)piperazin-1-yl)(5-(3,5-difluorophenyl)-4,5-dihydro-1H-pyrazol-1-yl)methanone]", "EC50": "0.1 to 100"}, {"smiles": "Cc1cnn(C)c1-c1nc(N2CCN(C(=O)N3N=CC[C@H]3c3cc(F)cc(F)c3)CC2)ccc1F", "note": "[Compound 113, (S)-(5-(3,5-difluorophenyl)-4,5-dihydro-1H-pyrazol-1-yl)(4-(6-(1,4-dimethyl-1H-pyrazol-5-yl)-5-fluoropyridin-2-yl)piperazin-1-yl)methanone]", "EC50": "0.1 to 100"}, {"smiles": "O=C(O)c1c[nH]c(-c2nc(N3CCN(C(=O)N4N=CC[C@H]4c4cc(F)cc(F)c4)CC3)ncc2F)c1", "note": "[Compound 21, (S)-5-(2-(4-(5-(3,5-difluorophenyl)-4,5-dihydro-1H-pyrazole-1-carbonyl)piperazin-1-yl)-5-fluoropyrimidin-4-yl)-1H-pyrrole-3-carboxylic acid]", "EC50": "0.1 to 100"}, {"smiles": "Cc1nn(CCC2CCOCC2)c(C)c1-c1nc(N2CCN(C(=O)N3N=CC[C@H]3c3cc(F)cc(C#N)c3)CC2)ncc1F", "note": "[Compound 138, (S)-3-(1-(4-(4-(3,5-dimethyl-1-(2-(tetrahydro-2H-pyran-4-yl)ethyl)-1H-pyrazol-4-yl)-5-fluoropyrimidin-2-yl)piperazine-1-carbonyl)-4,5-dihydro-1H-pyrazol-5-yl)-5-fluorobenzonitrile]", "EC50": "0.1 to 100"}, {"smiles": "NC(=O)c1cnn(-c2nc(N3CCN(C(=O)N4N=CC[C@H]4c4ccccc4)CC3)ncc2F)c1", "note": "[Compound 111, (S)-1-(5-fluoro-2-(4-(5-phenyl-4,5-dihydro-1H-pyrazole-1-carbonyl)piperazin-1-yl)pyrimidin-4-yl)-1H-pyrazole-4-carboxamide]", "EC50": "0.1 to 100"}, {"smiles": "O=C(N1CCN(c2ncc(F)c(-c3cn[nH]c3)n2)CC1)N1N=CC[C@H]1c1cc(F)cc(F)c1", "note": "[Compound 52, (S)-(5-(3,5-difluorophenyl)-4,5-dihydro-1H-pyrazol-1-yl)(4-(5-fluoro-4-(1H-pyrazol-4-yl)pyrimidin-2-yl)piperazin-1-yl)methanone]", "EC50": "0.1 to 100"}]}, {"system": "HT-29 cells", "test": "HT-29 cell necrosis/necroptosis inhibition (TNF-α + SMAC mimetic + zVAD-FMK; CellTiter-Glo cell viability)", "assay_type": "cell-based", "conditions": "Homo sapiens; HT-29 cells, TNF-α 10 ng/ml + SMAC mimetic 6 μM + zVAD-FMK 10 μM, 20 hours; geometric mean, 10 points in duplicate; read-out: EC50 (Cell activity; Necrosis/Necroptosis Inhibitory Activity, Compounds 143-323)", "procedure,_shortened": "as §1", "units": {"EC50": "nM"}, "values": [{"smiles": "Cc1cnc(C2CC=NN2C(=O)N2CCN(c3ncc(F)c(-c4cnn(C)n4)n3)CC2)s1", "note": "(stereo not drawn) [Compound 317, (4-(5-fluoro-4-(2-methyl-2H-1,2,3-triazol-4-yl)pyrimidin-2-yl)piperazin-1-yl)(5-(5-methylthiazol-2-yl)-4,5-dihydro-1H-pyrazol-1-yl)methanone]", "EC50": "100 to 1000"}, {"smiles": "Cc1nc(C)n(-c2nc(N3CCN(C(=O)N4N=CC[C@H]4c4cncc(F)c4)CC3)c(F)cc2F)n1", "note": "[Compound 234, (S)-(4-(6-(3,5-dimethyl-1H-1,2,4-triazol-1-yl)-3,5-difluoropyridin-2-yl)piperazin-1-yl)(5-(5-fluoropyridin-3-yl)-4,5-dihydro-1H-pyrazol-1-yl)methanone]", "EC50": "0.1 to 100"}, {"smiles": "Cc1nc(C)n(-c2nc(N3CCN(C(=O)N4N=CCC4c4ncccc4Cl)CC3)ncc2Cl)n1", "note": "(stereo not drawn) [Compound 220, (4-(5-chloro-4-(3,5-dimethyl-1H-1,2,4-triazol-1-yl)pyrimidin-2-yl)piperazin-1-yl)(5-(3-chloropyridin-2-yl)-4,5-dihydro-1H-pyrazol-1-yl)methanone]", "EC50": "0.1 to 100"}, {"smiles": "Cc1nn(-c2cc(N3CCN(C(=O)N4N=CC[C@H]4c4cc(F)cc(C#N)c4)CC3)ncn2)c(C)c1Br", "note": "[Compound 278, (S)-3-(1-(4-(6-(4-bromo-3,5-dimethyl-1H-pyrazol-1-yl)pyrimidin-4-yl)piperazine-1-carbonyl)-4,5-dihydro-1H-pyrazol-5-yl)-5-fluorobenzonitrile]", "EC50": "0.1 to 100"}, {"smiles": "Cc1cnn(C)c1-c1ncc(F)c(N2CCN(C(=O)N3N=CCC3c3cncs3)CC2)n1", "note": "(stereo not drawn) [Compound 159, (4-(2-(1,4-dimethyl-1H-pyrazol-5-yl)-5-fluoropyrimidin-4-yl)piperazin-1-yl)(5-(thiazol-5-yl)-4,5-dihydro-1H-pyrazol-1-yl)methanone]", "EC50": "0.1 to 100"}, {"smiles": "COc1cnc(N2CCN(C(=O)N3N=CC[C@H]3c3cc(F)cc(C#N)c3)CC2)nc1-c1ncnn1C", "note": "[Compound 150, (S)-3-fluoro-5-(1-(4-(5-methoxy-4-(1-methyl-1H-1,2,4-triazol-5-yl)pyrimidin-2-yl)piperazine-1-carbonyl)-4,5-dihydro-1H-pyrazol-5-yl)benzonitrile]", "EC50": "0.1 to 100"}, {"smiles": "Cc1cnn(C)c1-c1sc(N2CCN(C(=O)N3N=CC[C@H]3c3cc(F)cc(F)c3)CC2)nc1Cl", "note": "[Compound 185, (S)-(4-(4-chloro-5-(1,4-dimethyl-1H-pyrazol-5-yl)thiazol-2-yl)piperazin-1-yl)(5-(3,5-difluorophenyl)-4,5-dihydro-1H-pyrazol-1-yl)methanone]", "EC50": "0.1 to 100"}, {"smiles": "N#Cc1cc(F)cc([C@@H]2CC=NN2C(=O)N2CCN(c3ncc(F)c(-n4cnc(C(F)(F)F)n4)n3)CC2)c1", "note": "[Compound 306, (S)-3-fluoro-5-(1-(4-(5-fluoro-4-(3-(trifluoromethyl)-1H-1,2,4-triazol-1-yl)pyrimidin-2-yl)piperazine-1-carbonyl)-4,5-dihydro-1H-pyrazol-5-yl)benzonitrile]", "EC50": "0.1 to 100"}, {"smiles": "Cc1ncn(-c2nc(N3CCN(C(=O)N4N=CC[C@H]4c4cc(F)cc(F)c4)CC3)ncc2F)n1", "note": "[Compound 235, (S)-(5-(3,5-difluorophenyl)-4,5-dihydro-1H-pyrazol-1-yl)(4-(5-fluoro-4-(3-methyl1H-1,2,4-triazol-1-yl)pyrimidin-2-yl)piperazin-1-yl)methanone]", "EC50": "0.1 to 100"}, {"smiles": "Cc1cnn(C)c1-c1ncc(F)c(N2CCN(C(=O)N3N=CC[C@H]3c3cc(F)cc(C#N)c3)CC2)n1", "note": "[Compound 268, (S)-3-(1-(4-(2-(1,4-dimethyl-1H-pyrazol-5-yl)-5-fluoropyrimidin-4-yl)piperazine-1-carbonyl)-4,5-dihydro-1H-pyrazol-5-yl)-5-fluorobenzonitrile]", "EC50": "0.1 to 100"}, {"smiles": "Cc1c(N)nn(C)c1-c1ccnc(N2CCN(C(=O)N3N=CC[C@H]3c3cc(F)cc(F)c3)CC2)n1", "note": "[Compound 143, (S)-(4-(4-(3-amino-1,4-dimethyl-1H-pyrazol-5-yl)pyrimidinyl)piperazin-1-yl)(5-(3,5-difluorophenyl)-4,5-dihydro-1H-pyrazol-1-yl)methanone]", "EC50": "0.1 to 100"}, {"smiles": "Cc1nn(-c2nc(N3CCN(C(=O)N4N=CC[C@H]4c4cc(F)cc(C#N)c4)CC3)ncc2F)c(C)c1NC(=O)CC1CC1", "note": "[Compound 195, (S)—N-(1-(2-(4-(5-(3-cyano-5-fluorophenyl)-4,5-dihydro-1H-pyrazole-1-carbonyl)piperazin-1-yl)-5-fluoropyrimidin-4-yl)-3,5-dimethyl-1H-pyrazol-4-yl)-2-cyclopropylacetamide]", "EC50": "0.1 to 100"}, {"smiles": "Cc1nnc(-c2nc(N3CCN(C(=O)N4N=CCC4c4ncccc4Cl)CC3)ncc2F)s1", "note": "(stereo not drawn) [Compound 210]", "EC50": "0.1 to 100"}, {"smiles": "Cn1cnc(-c2ccc(F)c(N3CCN(C(=O)N4N=CC[C@H]4c4cc(F)cc(C#N)c4)CC3)n2)n1", "note": "[Compound 177, (S)-3-fluoro-5-(1-(4-(3-fluoro-6-(1-methyl-1H-1,2,4-triazol-3-yl)pyridin-2-yl)piperazine-1-carbonyl)-4,5-dihydro-1H-pyrazol-5-yl)benzonitrile]", "EC50": "100 to 1000"}, {"smiles": "Cc1nc(C2CC=NN2C(=O)N2CCN(c3ncc(F)c(-c4nnc(C)s4)n3)CC2)co1", "note": "(stereo not drawn) [Compound 209, (4-(5-fluoro-4-(5-methyl-1,3,4-thiadiazol-2-yl)pyrimidin-2-yl)piperazin-1-yl)(5-(2-methyloxazol-4-yl)-4,5-dihydro-1H-pyrazol-1-yl)methanone]", "EC50": "100 to 1000"}]}]}
